The source made the active and inactive calls.
Key:
[1] = biological target: T1, Stimulator of interferon genes protein (Mus musculus) (UniProt Q3TBT3); assay: Induction of STING dimerization in mouse BMDM cells assessed as dimerization (initially increase and then decreased) at 2.5 to 20 uM measured after 5 hrs by Western blot analysis; format: cell-based; conditions: filed as agonist, dose 2.5-20 µM
T1 sequence (whole entry): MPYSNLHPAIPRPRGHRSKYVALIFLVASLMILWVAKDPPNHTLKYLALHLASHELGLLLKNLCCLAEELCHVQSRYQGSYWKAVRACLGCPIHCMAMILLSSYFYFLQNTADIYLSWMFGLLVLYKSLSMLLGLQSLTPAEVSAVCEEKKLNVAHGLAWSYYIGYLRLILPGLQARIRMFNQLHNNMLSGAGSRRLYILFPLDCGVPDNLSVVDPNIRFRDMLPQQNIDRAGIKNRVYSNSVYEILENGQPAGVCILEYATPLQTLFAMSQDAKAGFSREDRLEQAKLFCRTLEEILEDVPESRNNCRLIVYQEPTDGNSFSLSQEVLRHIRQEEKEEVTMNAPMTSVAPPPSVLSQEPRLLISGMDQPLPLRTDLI

[2] = biological target: T1, Stimulator of interferon genes protein (Mus musculus); assay: Induction of STING-dependent gene expression in mouse BMDC cells assessed as IFNalpha mRNA expression at 20 uM incubated for 8 hrs by qRT-PCR analysis; format: cell-based; conditions: filed as agonist
[3] = biological target: T1, Stimulator of interferon genes protein (Mus musculus); assay: Induction of STING dimerization in mouse BMDC cells assessed as dimerization (initially increase and then decreased) at 2.5 to 20 uM measured after 5 hrs by Western blot analysis; format: cell-based; conditions: filed as agonist, dose 2.5-20 µM
[4] = biological target: T1, Stimulator of interferon genes protein (Mus musculus); assay: Induction of STING-dependent gene expression in mouse BMDC cells assessed as IFNbeta mRNA expression at 20 uM incubated for 8 hrs by qRT-PCR analysis; format: cell-based; conditions: filed as agonist
[5] = biological target: Stimulator of interferon genes protein (Homo sapiens) (UniProt Q86WV6); assay: Induction of STING-dependent gene expression in human HT-1080 cells assessed as IFNalpha mRNA expression at 20 uM incubated for 8 hrs by qRT-PCR analysis; format: cell-based; conditions: filed as agonist
[6] = biological target: Stimulator of interferon genes protein (Homo sapiens) (UniProt Q86WV6); assay: Induction of oligomerization of STING in HEK-293T cells stably expressing STING-Flag ( unknown origin) measured after 4 hrs by immunoprecipitation assay; format: cell-based; conditions: filed as agonist
Mus musculus [7] = assay: Induction of immune-activation effect in wild type female BALB/c mouse assessed as increase in serum IFNbeta level at 15 to 30 mg/kg, ip measured after 24 to 48 hrs by ELISA relative to control; format: functional, organism-based; conditions: dose 15-30 mg/kg, time 24-48 hrs
[8] = biological target: T1, Stimulator of interferon genes protein (Mus musculus); assay: Agonist activity at STING in mouse BMDC cells assessed as change in TBK1 phosphorylation (initially increase and then decreased) at 20 uM measured after 5 hrs by Western blot analysis; format: cell-based; conditions: filed as agonist
[9] = biological target: Stimulator of interferon genes protein (Homo sapiens) (UniProt Q86WV6); assay: Induction of STING-dependent gene expression in human HT-1080 cells assessed as IFNbeta mRNA expression at 20 uM incubated for 8 hrs by qRT-PCR analysis; format: cell-based; conditions: filed as agonist
[10] = biological target: T1, Stimulator of interferon genes protein (Mus musculus); assay: Agonist activity at STING in mouse BMDM cells assessed as change in TBK1 phosphorylation (initially increase and then decreased) at 20 uM measured after 5 hrs by Western blot analysis; format: cell-based; conditions: filed as agonist
Mus musculus [11] = assay: Induction of immune-activation effect in wild type female BALB/c mouse assessed as increase in serum TNFalpha level at 15 to 30 mg/kg, ip measured after 24 to 48 hrs by ELISA relative to control; format: functional, organism-based; conditions: dose 15-30 mg/kg, time 24-48 hrs
HT-1080 [12] = assay: Induction of TBK1 phosphorylation in human HT1080 cells at 20 uM measured after 5 hrs by Western blot analysis; format: functional, cell-based
HT-1080 [13] = assay: Induction of TBK1 phosphorylation in STING - knockout human HT1080 cells at 20 uM measured after 5 hrs by Western blot analysis; format: functional, cell-based

Measured: Activity

Stimulator of interferon genes protein (Homo sapiens), sequence (Q86WV6 whole entry): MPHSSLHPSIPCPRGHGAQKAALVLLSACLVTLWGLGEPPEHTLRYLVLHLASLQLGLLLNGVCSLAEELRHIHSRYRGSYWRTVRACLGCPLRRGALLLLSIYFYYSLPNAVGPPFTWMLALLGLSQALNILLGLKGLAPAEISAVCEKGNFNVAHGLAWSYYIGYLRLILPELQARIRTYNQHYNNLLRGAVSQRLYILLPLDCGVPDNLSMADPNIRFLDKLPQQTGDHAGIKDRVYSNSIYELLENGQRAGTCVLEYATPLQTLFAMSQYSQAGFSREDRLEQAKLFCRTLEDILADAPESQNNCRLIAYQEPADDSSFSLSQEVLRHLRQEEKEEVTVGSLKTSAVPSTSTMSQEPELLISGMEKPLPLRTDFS

O=C(NCCCCCCCCNC(=O)c1ccc([N+](=O)[O-])o1)c1ccc([N+](=O)[O-])o1
not listed: HT-1080 [12] | HT-1080 [13]
active: all other assays above

O=C(NCCCCCCCCCNC(=O)c1ccc([N+](=O)[O-])o1)c1ccc([N+](=O)[O-])o1
not listed: Mus musculus [7] | Mus musculus [11] | HT-1080 [12] | HT-1080 [13]
active: all other assays above

O=C(NCCNCCNC(=O)c1ccc([N+](=O)[O-])s1)c1ccc([N+](=O)[O-])s1
active: HT-1080 [12] | HT-1080 [13]

O=C(NCCCCCCCNC(=O)c1ccc([N+](=O)[O-])o1)c1ccc([N+](=O)[O-])o1
not listed: HT-1080 [12] | HT-1080 [13]
active: all other assays above

Reference: ChEMBL document CHEMBL5385872, “Design and syntheses of a bimolecular STING agonist based on the covalent STING antagonist” (Eur J Med Chem, 2023)
